Data on eight molecules can be found in patent US10259810B2, “N-sulfonylated pyrazolo[3,4-b]pyridin-6-carboxamides and method of use” (AbbVie S.à.r.l., priority 2015, dated 2019).

One may read the EC50 as the concentration that produces a half-maximal response.

Experiment [1] deals with T1, ΔF508-CFTR (Homo sapiens, UniProt P13569, DEL508-508).
T1 construct: host or cells: CFBE41o-, doxycycline-inducible
As to the kind of experiment: CFTR cell surface levels using HRP-tagged ΔF508-CFTR expressing CFBE cells, in the presence of a co-corrector. The experiment is classed as cell-based. Put shortly: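 Chemiluminescent read-out of surface HRP (15 min, dark) after PBS washes. Activity is normalized as 100×(sample−DMSO)/(3 μM co-corrector alone−DMSO).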

The target in experiment [2] is T1, ΔF508-CFTR. As to the kind of experiment: CFTR cell surface levels using HRP-tagged ΔF508-CFTR expressing CFBE cells, intrinsic corrector capacity. The experiment is classed as cell-based. Also noted: % Activation: concentration or dose not given beside the values. In outline: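 Surface ΔF508-CFTR was measured as HRP chemiluminescence from an extracellular-loop-4 tag, expressed as percent activity between DMSO and a […] corrector control.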

The mark [3] stands for this setting: HRP-tagged ΔF508-CFTR CFBE cells, in the presence of 3 μM co-corrector.
[4] abbreviates: HRP-tagged ΔF508-CFTR CFBE cells, in the presence of 3 μM co-corrector, read-out: EC50.
The mark [5] stands for this setting: HRP-tagged ΔF508-CFTR expressing CFBE41o- cells, compound alone (intrinsic corrector capacity), 20 hours at 33° C.
Where [6] appears, read: HRP-tagged ΔF508-CFTR expressing CFBE41o- cells, compound alone (intrinsic corrector capacity), 20 hours at 33° C., read-out: EC50.

T1 sequence (P13569 with tags, fused parts or gaps DEL508-508): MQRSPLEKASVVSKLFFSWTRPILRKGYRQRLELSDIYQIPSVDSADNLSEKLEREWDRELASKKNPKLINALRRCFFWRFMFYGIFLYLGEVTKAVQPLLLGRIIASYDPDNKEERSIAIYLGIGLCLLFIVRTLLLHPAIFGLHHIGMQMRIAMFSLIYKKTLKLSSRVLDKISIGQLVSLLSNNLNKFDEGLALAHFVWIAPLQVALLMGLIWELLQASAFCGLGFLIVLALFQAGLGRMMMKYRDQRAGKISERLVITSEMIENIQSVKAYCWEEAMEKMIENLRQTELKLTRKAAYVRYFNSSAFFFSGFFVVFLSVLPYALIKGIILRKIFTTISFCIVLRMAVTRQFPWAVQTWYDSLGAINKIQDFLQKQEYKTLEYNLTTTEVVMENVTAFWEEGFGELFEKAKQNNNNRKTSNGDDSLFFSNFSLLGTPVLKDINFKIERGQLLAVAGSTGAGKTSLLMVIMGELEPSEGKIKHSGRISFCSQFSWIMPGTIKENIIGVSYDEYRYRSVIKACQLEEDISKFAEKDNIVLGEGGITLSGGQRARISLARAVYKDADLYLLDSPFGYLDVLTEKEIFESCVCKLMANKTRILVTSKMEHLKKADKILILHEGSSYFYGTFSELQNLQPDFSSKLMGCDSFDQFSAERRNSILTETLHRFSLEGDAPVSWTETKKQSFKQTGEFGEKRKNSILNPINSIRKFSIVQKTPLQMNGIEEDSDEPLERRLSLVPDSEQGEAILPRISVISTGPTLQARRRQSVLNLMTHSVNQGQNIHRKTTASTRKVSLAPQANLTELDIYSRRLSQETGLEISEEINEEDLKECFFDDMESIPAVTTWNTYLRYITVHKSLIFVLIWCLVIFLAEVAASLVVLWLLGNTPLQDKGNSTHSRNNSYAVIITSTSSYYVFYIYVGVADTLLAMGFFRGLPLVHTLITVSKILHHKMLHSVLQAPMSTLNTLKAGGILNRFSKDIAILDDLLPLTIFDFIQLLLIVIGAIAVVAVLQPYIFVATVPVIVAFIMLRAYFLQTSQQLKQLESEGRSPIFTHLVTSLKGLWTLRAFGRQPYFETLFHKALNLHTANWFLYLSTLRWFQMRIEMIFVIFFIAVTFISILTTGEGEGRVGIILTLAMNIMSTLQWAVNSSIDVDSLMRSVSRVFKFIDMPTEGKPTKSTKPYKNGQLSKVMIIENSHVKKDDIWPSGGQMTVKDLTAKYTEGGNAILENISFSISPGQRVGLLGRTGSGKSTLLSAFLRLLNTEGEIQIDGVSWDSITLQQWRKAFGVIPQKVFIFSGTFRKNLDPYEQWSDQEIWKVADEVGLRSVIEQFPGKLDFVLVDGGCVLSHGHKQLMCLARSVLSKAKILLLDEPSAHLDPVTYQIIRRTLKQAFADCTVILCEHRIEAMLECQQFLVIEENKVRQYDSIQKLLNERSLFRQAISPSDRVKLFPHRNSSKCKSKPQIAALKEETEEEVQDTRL

Take `COCCOCC1(F)CCCN(c2cc(C(=O)NS(C)(=O)=O)nc3c2c(C(C)C)nn3-c2ccc(F)cc2)C1` (centres unmarked) [Compound 346, 4-{3-fluoro-3-[(2-methoxyethoxy)methyl]piperidin-1-yl}-1-(4-fluorophenyl)-N-(methanesulfonyl)-3-(propan-2-yl)-1H-pyrazolo[3,4-b]pyridine-6-carboxamide]: the “% Activation” value was found to be 375.1% at ΔF508-CFTR [1] (setting [3]) and 195.8% on ΔF508-CFTR [2] (setting [5]). In addition, the half-maximal effective concentration (EC50) on ΔF508-CFTR [1] (setting [4]) amounted to 253 nM; on ΔF508-CFTR [2] (setting [6]), 308 nM.

For `O=C(NS(=O)(=O)CCCN1CCOCC1)c1cc(OCC2CCOCC2)c2c(C3CCC3)nn(-c3ccccc3)c2n1` [Compound 347, 3-cyclobutyl-N-[3-(morpholin-4-yl)propane-1-sulfonyl]-4-[(oxan-4-yl)methoxy]-1-phenyl-1H-pyrazolo[3,4-b]pyridine-6-carboxamide], the EC50 at ΔF508-CFTR [1] is 54.3 nM; on ΔF508-CFTR [2] it was 263 nM. Moreover, the entries for the “% Activation” value at ΔF508-CFTR [1] (setting [3]) and on ΔF508-CFTR [2] (setting [5]) were 301.15% and 131.4%, respectively.

Consider `CS(=O)(=O)NC(=O)c1cc(N2CCC[C@@H](CO)C2)c2c(C3CCC3)nn(-c3ccccc3)c2n1` [Compound 349, 3-cyclobutyl-4-[(3R)-3-(hydroxymethyl)piperidin-1-yl]-N-(methanesulfonyl)-1-phenyl-1H-pyrazolo[3,4-b]pyridine-6-carboxamide], for which the results for the concentration for a half-maximal effect (EC50) at ΔF508-CFTR [1] and at ΔF508-CFTR [2] were 424 nM and 512 nM, respectively. Moreover, the results for the “% Activation” value at ΔF508-CFTR [1] (setting [3]) and on ΔF508-CFTR [2] (setting [5]) were 327.9% and 161.7%, respectively.

Take `O=C(NS(=O)(=O)CCCN1CCOCC1)c1cc(N2CCC[C@@H](CO)C2)c2c(C3CCC3)nn(-c3ccccc3)c2n1` [Compound 350, 3-cyclobutyl-4-[(3R)-3-(hydroxymethyl)piperidin-1-yl]-N-[3-(morpholin-4-yl)propane-1-sulfonyl]-1-phenyl-1H-pyrazolo[3,4-b]pyridine-6-carboxamide]: the figures for the 50% effective concentration (EC50) at ΔF508-CFTR [1] and on ΔF508-CFTR [2] were 287 nM and 357 nM, respectively. Besides, the “% Activation” value on ΔF508-CFTR [1] (setting [3]) was determined as 274.6%; at ΔF508-CFTR [2] (setting [5]), 104.21%.

For the molecule `O=C(NS(=O)(=O)N1CCC(N2CCCC2)CC1)c1cc(OCC2CCOCC2)c2c(C3CCC3)nn(-c3ccccc3)c2n1` [Compound 351, 3-cyclobutyl-4-[(oxan-4-yl)methoxy]-1-phenyl-N-[4-(pyrrolidin-1-yl)piperidine-1-sulfonyl]-1H-pyrazolo[3,4-b]pyridine-6-carboxamide], the “% Activation” value on ΔF508-CFTR [1] (setting [3]) is reported as 232.5%; on ΔF508-CFTR [2] (setting [5]), 50.87%. The half-maximal effective concentration (EC50) was found to be 81.1 nM on ΔF508-CFTR [1] (setting [4]) and 73.5 nM at ΔF508-CFTR [2] (setting [6]).

Regarding `CN1CCN(C(=O)[C@@H]2CCCN2S(=O)(=O)NC(=O)c2cc(OCC3CCOCC3)c3c(C4CCC4)nn(-c4ccccc4)c3n2)CC1` [Compound 352, 3-cyclobutyl-N-[(2S)-2-(4-methylpiperazine-1-carbonyl)pyrrolidine-1-sulfonyl]-4-[(oxan-4-yl)methoxy]-1-phenyl-1H-pyrazolo[3,4-b]pyridine-6-carboxamide], the “% Activation” value came out at 158.4% on ΔF508-CFTR [1] (setting [3]) and 27.44% at ΔF508-CFTR [2] (setting [5]). Moreover, the EC50 on ΔF508-CFTR [1] (setting [4]) stood at 2780 nM; on ΔF508-CFTR [2] (setting [6]), 5000 nM.

Take `O=C(NS(=O)(=O)N1CCC(N2CCCCC2)CC1)c1cc(OCC2CCOCC2)c2c(C3CCC3)nn(-c3ccccc3)c2n1` [Compound 353, N-([1,4'-bipiperidine]-1'-sulfonyl)-3-cyclobutyl-4-[(oxan-4-yl)methoxy]-1-phenyl-1H-pyrazolo[3,4-b]pyridine-6-carboxamide]: the “% Activation” value turned out to be 193.45% on ΔF508-CFTR [1] (setting [3]) and 56.22% at ΔF508-CFTR [2] (setting [5]). The results for the EC50 at ΔF508-CFTR [1] (setting [4]) and on ΔF508-CFTR [2] (setting [6]) were 346 nM and 87.9 nM, respectively.

As to `CCCN(C)S(=O)(=O)NC(=O)c1cc(OCC2CCOCC2)c2c(C3CCC3)nn(-c3ccccc3)c2n1` [Compound 354, 3-cyclobutyl-N-[methyl(propyl)sulfamoyl]-4-[(oxan-4-yl)methoxy]-1-phenyl-1H-pyrazolo[3,4-b]pyridine-6-carboxamide], the “% Activation” value was determined as 351% on ΔF508-CFTR [1] (setting [3]) and 113.7% at ΔF508-CFTR [2] (setting [5]). Further, the EC50 came to 232 nM on ΔF508-CFTR [1] (setting [4]) and 123 nM on ΔF508-CFTR [2] (setting [6]).
